Measured values reported in article PMC5700055, “Structural basis of cholesterol binding by a novel clade of dendritic cell modulators from ticks” (Scientific Reports, 2017).

Biological target: T1, Japanin (Rhipicephalus appendiculatus, UniProt M1MR49)
T1 construct: polyhistidine-tagged recombinant secretory lipocalin, Sf9 baculovirus; 18 kDa; N-glycosylated at Asn35 and Asn131; homodimer; disulphides Cys28-Cys150, Cys114-Cys138; modelled residues 1-154
T1 sequence (M1MR49 25-176): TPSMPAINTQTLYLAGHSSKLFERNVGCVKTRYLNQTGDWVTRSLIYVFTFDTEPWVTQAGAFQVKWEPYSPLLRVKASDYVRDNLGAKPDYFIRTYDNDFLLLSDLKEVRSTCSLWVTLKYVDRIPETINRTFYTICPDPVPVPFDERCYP
Experiment: X-ray crystallography ([…] and […] Å)
Type: binding
Details: co-purified ligand, no cholesterol added; one per monomer in closed lipocalin barrel pocket; crystals pH 6.9-7.2 (4boe) and pH 4.5 (4bqu), 21 °C

CC(C)CCC[C@@H](C)[C@H]1CC[C@H]2[C@@H]3CC=C4C[C@@H](O)CC[C@]4(C)[C@H]3CC[C@]12C [CLR, cholesterol]
X-ray crystallography (2.2 and 2.4 Å): each molecule in the crystals binds one molecule of cholesterol
